Experiments:
Cys-P3-tagged GPCR = assay: peptide-templated labeling of Cys-P3-tagged GPCRs in live HEK293 cells; assay type: cell-based; conditions: n=3; for fluorescent labeling: 200 nM probe
Cys-P1-tagged GPCR = assay: peptide-templated labeling of Cys-P1-tagged GPCRs in live HEK293 cells; assay type: cell-based; conditions: n=3; for fluorescent labeling: Cys-P1-ETAR-GFP, 200 nM probe
ETBR-GFP = assay: Ca2+ flux, COS-7, ETBR-GFP co-transfected with other GPCRs; assay type: cell-based; conditions: mock+sitaxentan vs mock+vehicle (no ETAR expression)
ETAR = conditions: competitive antagonist; ref [36]; cited from earlier work
ETBR = conditions: competitive antagonist; ref [36]; cited from earlier work

For “KIAQLKQ KIQALKQ ENQQLEE ENAALEY [TAMRA‐P4]”, the fluorescent labeling (Cys-P3-tagged GPCR; Cys-P3-ETAR-GFP) was “successfully labeled”, the “labeling with complementary probe” value (Cys-P3-tagged GPCR; Cys-P3-ETAR-GFP) was “Rapid TAMRA staining within 5 min” and the cross-reactivity labeling (Cys-P1-tagged GPCR; Cys-P1-ETBR-GFP with non-complementary probe) was “no successful TAMRA labeling was detectable”.

With “KIAQLKE KNAALKE KNQQLKE KIQALKY [TAMRA‐P2, 6‐carboxytetramethyl‐rhodamine (TAMRA)‐P2]” the cross-reactivity labeling (Cys-P3-tagged GPCR; Cys-P3-ETAR-GFP with non-complementary probe) was “no successful TAMRA labeling was detectable”, the fluorescent labeling (Cys-P1-tagged GPCR) was “successfully labeled” and the “labeling with complementary probe” value (Cys-P1-tagged GPCR; Cys-P1-ETBR-GFP) was “Rapid TAMRA staining within 5 min”.

For `Cc1cc2c(cc1CC(=O)c1sccc1S(=O)(=O)Nc1onc(C)c1Cl)OCO2` [sitaxentan], the “effect on ET-1 efficacy and potency at ETBR” value (ETBR-GFP) is given as “No differences in both ligand efficacy and potency”, the IC50 (ETAR) is given as about 0.001 µM and the IC50 (ETBR) is given as about 10 µM.

With TAMRA‐MPAA‐GSGSG the fluorescent labeling (Cys-P3-tagged GPCR; Cys-P3-ETAR-GFP) was “no labeling of GFP‐positive cells was detectable” and the fluorescent labeling (Cys-P1-tagged GPCR) was “no labeling of GFP‐positive cells was detectable”.
